Measured values: the supplement of paper PMC10307832

Columns and labels:
Assay in all cases: relative viability (nuclei count vs DMSO), 5 days (fraction); higher = more cells survive
Selisistat + OSI-027 = compound: C1CC(C2=C(C1)C3=C(N2)C=CC(=C3)Cl)C(=O)N [Selisistat] + COc1cccc2cc(-c3nc([C@H]4CC[C@H](C(=O)O)CC4)n4ncnc(N)c34)[nH]c12 [OSI-027] (partner 0.5 µM)
Outline: (§1)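 Lung cancer cell lines, seeded in 1536-well plates, were treated the following day by pin tool with a single drug or with five library-drug doses (not always all listed) in √10 steps on top of a fixed anchor-drug dose. Cells were fixed and nuclei stained in one step after 5 days, and nuclei were counted. Relative viability is the nuclei count for treated wells divided by that for vehicle wells, reported as medians of duplicate plates.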

Selisistat + Pictilisib = compound: C1CC(C2=C(C1)C3=C(N2)C=CC(=C3)Cl)C(=O)N [Selisistat] + CS(=O)(=O)N1CCN(Cc2cc3nc(-c4cccc5[nH]ncc45)nc(N4CCOCC4)c3s2)CC1 [Pictilisib] (partner 1 µM)
Outline: as §1

Serdemetan + Lapatinib = compound: c1ccc2c(CCNc3ccc(Nc4ccncc4)cc3)c[nH]c2c1 [Serdemetan] + CS(=O)(=O)CCNCc1ccc(-c2ccc3ncnc(Nc4ccc(OCc5cccc(F)c5)c(Cl)c4)c3c2)o1 [Lapatinib] (partner 2 µM)
Outline: as §1

Serdemetan + Dasatinib = compound: c1ccc2c(CCNc3ccc(Nc4ccncc4)cc3)c[nH]c2c1 [Serdemetan] + Cc1nc(Nc2ncc(C(=O)Nc3c(C)cccc3Cl)s2)cc(N2CCN(CCO)CC2)n1 [Dasatinib] (partner 0.075 µM)
Outline: as §1

Row | Cell Line | relative viability (Selisistat + OSI-027; first compound 0.4 µM) | relative viability (Selisistat + OSI-027; first compound 1.265 µM) | relative viability (Selisistat + OSI-027; first compound 4 µM) | relative viability (Selisistat + OSI-027; first compound 12.65 µM) | relative viability (Selisistat + OSI-027; first compound 40 µM) | relative viability (Selisistat + Pictilisib; first compound 0.4 µM) | relative viability (Selisistat + Pictilisib; first compound 1.265 µM) | relative viability (Selisistat + Pictilisib; first compound 4 µM) | relative viability (Selisistat + Pictilisib; first compound 12.65 µM) | relative viability (Selisistat + Pictilisib; first compound 40 µM) | relative viability (Serdemetan + Lapatinib; first compound 0.04 µM) | relative viability (Serdemetan + Lapatinib; first compound 0.1265 µM) | relative viability (Serdemetan + Lapatinib; first compound 0.4 µM) | relative viability (Serdemetan + Lapatinib; first compound 1.265 µM) | relative viability (Serdemetan + Lapatinib; first compound 4 µM) | relative viability (Serdemetan + Dasatinib; first compound 0.04 µM) | relative viability (Serdemetan + Dasatinib; first compound 0.1265 µM) | relative viability (Serdemetan + Dasatinib; first compound 0.4 µM) | relative viability (Serdemetan + Dasatinib; first compound 1.265 µM) | relative viability (Serdemetan + Dasatinib; first compound 4 µM)
1 | NCI-H460 | 0.695 | 0.667 | 0.471 | 0.557 | 0.666 | 0.439 | 0.282 | 0.164 | 0.317 | 0.33 | 0.878 | 0.936 | 0.866 | 0.659 | 0.132 | 0.616 | 0.545 | 0.47 | 0.258 | 0.141
2 | EKVX | 0.756 | 0.754 | 0.689 | 0.69 | 0.697 | 0.451 | 0.432 | 0.39 | 0.442 | 0.53 | 0.193 | 0.19 | 0.201 | 0.18 | 0.168 | 0.523 | 0.645 |  | 0.355 | 0.371
3 | NCI-H358 | 0.926 | 0.802 | 0.363 | 0.709 | 0.905 | 0.402 | 0.361 |  | 0.408 | 0.395 | 0.42 | 0.509 | 0.439 | 0.558 | 0.405 | 0.185 | 0.167 | 0.161 | 0.146 | 0.17
4 | EPLC-272H | 0.274 | 0.237 |  | 0.289 | 0.289 | 0.261 | 0.337 |  | 0.287 | 0.332 | 1.01 | 0.905 | 1.07 | 0.618 | 0.944 | 0.42 | 0.397 | 0.389 | 0.29 | 0.418
5 | NCI-H1563 | 0.761 | 0.761 | 0.76 | 0.655 | 0.703 | 0.559 | 0.639 | 0.649 | 0.605 | 0.623 | 0.637 | 0.892 | 0.527 | 0.799 | 0.723 | 0.496 | 0.466 | 0.452 | 0.457 | 0.461
6 | NCI-H1395 | 0.691 | 0.675 | 0.53 | 0.502 | 0.622 | 0.617 | 0.609 | 0.564 | 0.656 | 0.557 | 1.04 | 1.07 | 1.34 | 0.932 | 0.717 | 0.396 | 0.42 | 0.481 | 0.406 | 0.281
7 | NCI-H2126 | 0.781 | 0.639 | 0.609 | 0.62 | 0.768 | 0.525 | 0.496 | 0.398 | 0.526 | 0.584 | 0.736 | 0.724 | 0.78 | 0.645 | 0.844 | 0.643 | 0.665 | 0.517 | 0.467 | 0.557
8 | LXF-289 | 0.797 | 0.806 | 0.667 | 0.788 | 0.838 | 0.845 | 0.812 | 0.633 | 0.747 | 0.85 | 0.857 | 0.885 | 0.851 | 0.827 | 0.759 | 0.231 | 0.197 | 0.199 | 0.202 | 0.185
9 | NCI-H2009 | 0.659 | 0.662 | 0.424 | 0.509 | 0.535 | 0.928 | 0.827 | 0.323 | 0.609 | 0.795 | 0.851 | 1.03 | 0.889 | 0.822 | 0.691 | 0.315 | 0.326 | 0.31 | 0.25 | 0.221
10 | NCI-H2405 | 0.674 | 0.579 | 0.598 | 0.674 | 0.666 | 0.431 |  |  | 0.441 | 0.431 | 1 | 1.06 | 1.17 | 1.07 | 0.963 | 0.173 | 0.217 | 0.21 | 0.209 | 0.133
11 | NCI-H1755 | 0.745 | 0.736 | 0.739 | 0.686 | 0.746 | 0.439 | 0.414 | 0.363 | 0.451 | 0.443 | 0.984 | 1.01 | 0.989 | 0.548 | 0.714 | 0.414 | 0.446 | 0.404 | 0.24 | 0.306
12 | HCC-78 | 0.379 | 0.346 | 0.316 | 0.382 | 0.359 | 0.253 | 0.229 | 0.172 | 0.196 | 0.181 | 0.769 | 0.666 | 0.323 | 0.448 | 0.78 | 0.408 | 0.316 | 0.331 | 0.307 | 0.299
13 | LOU-NH91 | 0.814 | 0.715 | 0.675 | 0.756 | 0.708 | 0.538 | 0.496 | 0.485 | 0.532 | 0.512 | 0.773 | 0.83 |  | 0.606 | 0.83 | 0.564 | 0.554 | 0.371 | 0.43 | 0.565
14 | NCI-H3122 | 0.9 | 0.933 | 0.444 | 0.892 | 1.01 | 0.558 | 0.606 | 0.262 | 0.608 | 0.704 | 1 | 0.98 | 1 |  | 1.03 | 0.827 | 0.792 | 0.919 |  | 0.782
15 | HCC-827 | 0.763 | 0.766 | 0.705 | 0.746 | 0.768 | 0.86 | 0.91 | 1.03 | 0.962 | 1.04 | 0.168 | 0.178 |  | 0.188 | 0.173 | 0.372 | 0.231 |  | 0.229 | 0.138
16 | SK-LU-1 | 0.431 | 0.366 | 0.334 | 0.359 | 0.416 | 0.65 | 0.637 | 0.429 | 0.695 | 0.635 | 0.758 | 0.772 | 0.822 | 0.781 | 0.612 | 0.212 | 0.183 | 0.183 |  | 0.179
